Reference: the NIST ThermoML archive (doi:10.1021/je050440b)
± gives the expanded uncertainty stated by the source.

Experiment: activity coefficient (dimensionless); of the first substance listed, at infinite dilution; xn = mol fraction of the nth substance listed
Conditions: Liquid, Chromatography, x1 = 0

**Q.** Which activity coefficient (322.85 K) does the source give for `CCCCCO` [pentan-1-ol] + CCCC[N+](C)(C)C.O=S(=O)([N-]S(=O)(=O)C(F)(F)F)C(F)(F)F here?
**A.** 3.85 ± 0.26

**Q.** What about the activity coefficient (333.15 K) of the same molecule?
**A.** 3.39 ± 0.23

**Q.** What about the activity coefficient (343.65 K) of the same molecule?
**A.** 3.01 ± 0.2

**Q.** What about the activity coefficient (354.05 K) of the same molecule?
**A.** 2.72 ± 0.19

**Q.** What about the activity coefficient (364.45 K) of the same molecule?
**A.** 2.45 ± 0.17

**Q.** What does the source list for `CCCCCCO` [hexan-1-ol] + CCCC[N+](C)(C)C.O=S(=O)([N-]S(=O)(=O)C(F)(F)F)C(F)(F)F?
**A.** activity coefficient (343.65 K): 4.02 ± 0.27; activity coefficient (354.05 K): 3.58 ± 0.24; activity coefficient (364.45 K): 3.24 ± 0.22; activity coefficient (385.55 K): 2.67 ± 0.18

**Q.** With `c1ccccc1` [benzene] + CCCC[N+](C)(C)C.O=S(=O)([N-]S(=O)(=O)C(F)(F)F)C(F)(F)F as the molecule, how does the activity coefficient (322.75 K) read?
**A.** 1.3 ± 0.08

**Q.** And the activity coefficient (333.35 K)?
**A.** 1.26 ± 0.08

**Q.** What about the activity coefficient (343.55 K) of the same molecule?
**A.** 1.26 ± 0.08

**Q.** What about the activity coefficient (354.05 K) of the same molecule?
**A.** 1.22 ± 0.08

**Q.** And the activity coefficient (364.45 K)?
**A.** 1.2 ± 0.08

**Q.** Which activity coefficient (305.85 K) does the source give for `C=CCCCC` [hex-1-ene] + CCCC[N+](C)(C)C.O=S(=O)([N-]S(=O)(=O)C(F)(F)F)C(F)(F)F here?
**A.** 10.2 ± 0.7

**Q.** What about the activity coefficient (312.35 K) of the same molecule?
**A.** 9.81 ± 0.67

**Q.** What about the activity coefficient (322.55 K) of the same molecule?
**A.** 9.46 ± 0.65

**Q.** What about the activity coefficient (343.65 K) of the same molecule?
**A.** 8.63 ± 0.59

**Q.** What about the activity coefficient (364.55 K) of the same molecule?
**A.** 7.93 ± 0.54

**Q.** What does the source list for `CCCCCC(=O)OC` [methyl hexanoate] + CCCC[N+](C)(C)C.O=S(=O)([N-]S(=O)(=O)C(F)(F)F)C(F)(F)F?
**A.** activity coefficient (343.65 K): 2.43 ± 0.17; activity coefficient (354.05 K): 2.33 ± 0.16; activity coefficient (364.55 K): 2.19 ± 0.15; activity coefficient (374.95 K): 2.08 ± 0.14

**Q.** With `CN(C)C=O` [dimethylformamide] + CCCC[N+](C)(C)C.O=S(=O)([N-]S(=O)(=O)C(F)(F)F)C(F)(F)F as the molecule, how does the activity coefficient (364.55 K) read?
**A.** 0.29 ± 0.03

**Q.** What about the activity coefficient (375.15 K) of the same molecule?
**A.** 0.29 ± 0.03

**Q.** And the activity coefficient (385.55 K)?
**A.** 0.3 ± 0.03

**Q.** What about the activity coefficient (396.15 K) of the same molecule?
**A.** 0.3 ± 0.03

**Q.** With `CC(C)=O` [acetone] + CCCC[N+](C)(C)C.O=S(=O)([N-]S(=O)(=O)C(F)(F)F)C(F)(F)F as the molecule, how does the activity coefficient (301.85 K) read?
**A.** 0.42 ± 0.04

**Q.** And the activity coefficient (312.45 K)?
**A.** 0.42 ± 0.04

**Q.** And the activity coefficient (343.75 K)?
**A.** 0.4 ± 0.03

**Q.** Which activity coefficient (354.05 K) does the source give for `CCCCCCCO` [heptan-1-ol] + CCCC[N+](C)(C)C.O=S(=O)([N-]S(=O)(=O)C(F)(F)F)C(F)(F)F here?
**A.** 3.47 ± 0.24

**Q.** What about the activity coefficient (364.63 K) of the same molecule?
**A.** 3.11 ± 0.21

**Q.** What about the activity coefficient (375.05 K) of the same molecule?
**A.** 2.81 ± 0.19

**Q.** What about the activity coefficient (386.6 K) of the same molecule?
**A.** 2.58 ± 0.18

**Q.** Which results are given for `CCC=O` [propanal] + CCCC[N+](C)(C)C.O=S(=O)([N-]S(=O)(=O)C(F)(F)F)C(F)(F)F?
**A.** activity coefficient (301.65 K): 0.58 ± 0.04; activity coefficient (312.25 K): 0.57 ± 0.04; activity coefficient (322.75 K): 0.54 ± 0.04; activity coefficient (333.25 K): 0.53 ± 0.04; activity coefficient (343.55 K): 0.52 ± 0.04

**Q.** What does the source list for `C=CCCCCCCCCCC` [1-dodecene] + CCCC[N+](C)(C)C.O=S(=O)([N-]S(=O)(=O)C(F)(F)F)C(F)(F)F?
**A.** activity coefficient (333.25 K): 76.8 ± 5.3; activity coefficient (343.75 K): 68.9 ± 4.7; activity coefficient (354.05 K): 61.4 ± 4.2; activity coefficient (364.55 K): 54.6 ± 3.7; activity coefficient (371.95 K): 49 ± 3.4

**Q.** With `CCCCC(=O)OC` [methyl pentanoate] + CCCC[N+](C)(C)C.O=S(=O)([N-]S(=O)(=O)C(F)(F)F)C(F)(F)F as the molecule, how does the activity coefficient (322.75 K) read?
**A.** 1.66 ± 0.11

**Q.** And the activity coefficient (333.15 K)?
**A.** 1.63 ± 0.11

**Q.** What about the activity coefficient (364.55 K) of the same molecule?
**A.** 1.44 ± 0.09

**Q.** And the activity coefficient (374.95 K)?
**A.** 1.33 ± 0.09

**Q.** With `CCC(C)O` (stereo not drawn) [butan-2-ol] + CCCC[N+](C)(C)C.O=S(=O)([N-]S(=O)(=O)C(F)(F)F)C(F)(F)F as the molecule, how does the activity coefficient (333.15 K) read?
**A.** 2.06 ± 0.14

**Q.** What about the activity coefficient (343.65 K) of the same molecule?
**A.** 1.87 ± 0.13

**Q.** What about the activity coefficient (354.05 K) of the same molecule?
**A.** 1.7 ± 0.11

**Q.** What about the activity coefficient (364.45 K) of the same molecule?
**A.** 1.53 ± 0.1

**Q.** What about the activity coefficient (374.95 K) of the same molecule?
**A.** 1.38 ± 0.09
